Test results from patent US20170121295A1, “POLYCYCLIC LPA1 ANTAGONIST AND USES THEREOF” (AMIRA PHARMACEUTICALS, INC., priority 2010, published 2017).

Tests used:
[1] = Metabolite identification in hepatocytes; assay type: in vitro ADME, rat, dog, monkey, human; details: rat, dog or human hepatocytes
Protocol: Rat, dog, monkey, or human hepatocytes were thawed according to the supplier's instructions. Cells were counted using the Trypan Blue method, and then diluted to 1×10^6 viable cells/ml with KB medium. Compound 1 was tested at 30 μM and incubated for up to 2 hours in rat hepatocytes and 4 hours in dog, monkey or human hepatocytes at 37° C. Reactions were terminated with addition of 3 times incubation volume of acetonitrile, centrifuged, and supernatants were transferred, nitrogen blow dried and reconstituted in 50% acetonitrile in water for LC/MS analysis.
(§1) LC/MS/MS analysis was carried out with a Sciex API-4000Qtrap tandem mass spectrometer (Applied Biosystems/Life Technologies, Carlsbad, Calif.) interfaced to a high-performance liquid chromatography system consisting of an Agilent 1200 series pump (Foster City, Calif.) and a LEAP Technologies PAL autoinjector (Carrboro, N.C.).
(§2) Parent/metabolite analysis was conducted in the positive ion mode (ESI) by multiple reaction monitoring of parent. The mobile phases contained 10 mM ammonium acetate in water with 0.05% formic acid (solvent A) and 10 mM ammonium acetate in 50% acetonitrile/50% methanol with 0.05% formic acid (solvent B). For Compound 1, the flow rate was maintained at 1 mL/min and the total run time was 2.5 min. Analytes were separated on a YMC ODS-AQ column (2.1×150 mm; 3 μm) and eluted with a linear gradient as follows: • 1. mobile phase was held for 0.5 min at 5% B, • 2. B was increased from 5% to 95% over the next 0.2 min, • 3. B was held constant for 1.3 min at 95%, and • 4. B was returned to the initial gradient conditions.
(§3) GSH adducts were investigated in microsomes, hepatocytes and rat bile using several methods including the neutral loss of pyroglutamate (129 Da) as well as a precursor ion scans of Compound 1 (105 Da, 318 Da and 438 Da).
For metabolite quantitation, the flow rate was maintained at 0.25 mL/min and the total run time was 60 min. Analytes were separated using a linear gradient as follows: • 1. mobile phase was held for 5 min at 5% B, • 2. B was increased from 5% to 95% over the next 45 min. • 3. […]

[2] = Metabolite identification in liver microsomes; assay type: in vitro ADME, rat, dog, monkey, human; details: human microsomes
Protocol: To determine the qualitative metabolic profile, 30 μM of Compound 1 was incubated aerobically with rat, dog, monkey, or human liver microsomes (1 mg/mL). The incubations were performed in phosphate buffer at pH 7.4, 37° C., with the reaction initiated by the addition of P-NADPH, GSH and/or UDPGA (1, 5 and 2 mM final concentration, respectively). The reaction was terminated by the addition of 3 times incubation volume of acetonitrile after 60 minutes. The sample was centrifuged and the supernatant was transferred, nitrogen blow dried and reconstituted in 50% acetonitrile in water for LC/MS analysis.
as §1, §2, §3
For metabolite quantitation, the flow rate was maintained at 0.25 mL/min and the total run time was 60 min. Analytes were separated using a linear gradient as follows: • 1. mobile phase was held for 5 min at 5% B, • 2. […]

[3] = molecular target: T1, Human LPA1 (Homo sapiens, UniProt Q92633); test: LPA1 Calcium Flux Assay; assay type: cell-based; details: human LPA1 expressing CHO cells, 10 nM LPA; read-out: Ca Flux IC50 LPA1
T1 construct: the full-length cDNA for human LPA1 was obtained by PCR of the reverse transcription reaction; expressed in transfected cells
Protocol: A 1.1 kb cDNA encoding the human LPA1 receptor was cloned from human lung. Human lung RNA (Clontech Laboratories, Inc. USA) was reverse transcribed using the RETROscript kit (Ambion, Inc.) and the full-length cDNA for human LPA1 was obtained by PCR of the reverse transcription reaction. The nucleotide sequence of the cloned human LPA1 was determined by sequencing and confirmed to be identical to the published human LPA1 sequence (An et al. Biochem. Biophys. Res. Commun. 231:619 (1997). The cDNA was cloned into the pCDNA5/FRT expression plasmid and transfected in CHO cells using lipofectamine 2000 (Invitrogen Corp., USA). Clones stably expressing human LPA1 were selected using hygromycin and identified as cells that show Ca-influx in response to LPA.
Human LPA1 or LPA3 expressing CHO cells are seeded at 20,000-45,000 cells per well in a 96-well poly-D-lysine coated plate one or two days before the assay. Prior to the assay, the cells are washed once with PBS and then cultured in serum-free media overnight. On the day of the assay, a calcium indicator dye (Calcium 4, Molecular Devices) in assay buffer (HBSS with Ca^2+ and Mg^2+ and containing 20 mM Hepes and 0.3% fatty-acid free human serum albumin) is added to each well and incubation continued for 1 hour at 37° C. 10 μl of test compound in 2.5% DMSO are added to the cells and incubation continued at room temperature for 30 minutes. Cells are the stimulated by the addition of 10 nM LPA and intracellular Ca^2+ measured using the Flexstation 3 (Molecular Devices). IC50s are determined using Graphpad prism analysis of drug titration curves.

[4] = Pharmacokinetics in Male Beagle Dogs; assay type: in vivo; details: free acid dosed orally at 5 mg/kg
Protocol: The pharmacokinetics of Compound 1 and Compound 2 was assessed in male Beagle dogs.
Dosing of male Beagle dogs (n=3) was performed. Compound 1 or Compound 2 was dosed intravenously at 2 mg/kg (fasted) and orally (fasted or non-fasted) at 5 mg/kg. In fasted animals, food was withheld a minimum of 12 hours prior to dosing and then returned 4 hours post-dose. Non-fasted animals were allowed to feed 1 hour prior to dosing ad libitum. Compound 2 capsules were given by oral gavage in the fasted state. Plasma samples were collected by Perry Scientific study personnel.
The capsules are noted in Table 25 below. Capsules were size 0 gelatin (Capsugel, Peapack, N.J.). Tablet formulations are noted in Example 24.
For the clinical drug product oral solution of active agent (1.67 mg/mL), sucralose (0.5% w/w) and cherry flavor (0.5% w/w) is added to the formulation as a sweetener and taste masking agent, respectively to a 0.5% methocel aqueous solution.
Blood samples (approximately 1 mL total blood) were taken from each dog at pre-dose, and an initial time of 5 or 15 min and then various time points up to 24 hours post-dose (10-11 samples per animal). Samples were collected on wet ice in tubes containing potassium EDTA. After each blood draw, the cannula was flushed with an equivalent volume of heparinized saline (0.1 mL at 40 units/mL). Plasma samples, prepared by centrifugation of whole blood, were stored frozen (−80° C.) prior to analysis.

T1 sequence (Q92633 whole entry): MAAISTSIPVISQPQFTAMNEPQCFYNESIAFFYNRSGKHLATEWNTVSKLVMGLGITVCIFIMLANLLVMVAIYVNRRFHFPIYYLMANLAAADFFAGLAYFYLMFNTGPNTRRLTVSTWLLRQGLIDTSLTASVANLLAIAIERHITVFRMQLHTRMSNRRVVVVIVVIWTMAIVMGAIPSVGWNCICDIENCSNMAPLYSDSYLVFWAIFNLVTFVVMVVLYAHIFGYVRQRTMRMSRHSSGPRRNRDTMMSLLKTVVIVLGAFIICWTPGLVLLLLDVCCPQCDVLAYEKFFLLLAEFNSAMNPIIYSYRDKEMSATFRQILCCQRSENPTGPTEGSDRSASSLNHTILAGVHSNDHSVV

GSH adduct in hepatocytes [1]: No GSH adduct was observed
GSH adduct in microsomes [2]: No GSH adduct was observed
IC50 [3]: < 200 nM
exposure [4]: reduced exposure
bioavailability ([4]; male, Beagle, dog, plasma, po, 5 mg/kg, read-out: apparent oral bioavailability): 19%
SMILES: Cc1noc(-c2ccc(-c3ccc(C4(C(=O)O)CC4)cc3)cc2)c1NC(=O)O[C@H](C)c1ccccc1 [Compound 1, 1-{4′-[3-methyl-4-((R)-1-phenyl-ethoxycarbonylamino)-isoxazol-5-yl]-biphenyl-4-yl}-cyclopropanecarboxylic acid]
